In patent US10301280B2 (Plexxikon Inc., priority 2012, dated 2019):

Assays:
[1] = target: c-kit mutant D816V (Homo sapiens (Human), UniProt P10721, D816V/DEL694-753); experiment: c-Kit mutant D816V biochemical assay (AlphaScreen); settings: c-kit D816V biochemical inhibitory activity
Method in brief: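 His-tagged c-Kit D816V kinase domain (551-934, Δ694-753, E. coli) phosphorylating 30 nM biotin-(E4Y)10 at 10 μM ATP in HEPES pH 7.2 with Mg/Mn, 5% DMSO, 30 min at room temperature. PY20-acceptor/streptavidin-donor AlphaScreen detection after EDTA stop. IC50 from 8-point 1:3 titration.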

[2] = test system: BaF3-FL KIT D816V or BaF3-FL KIT V560G/D816V cell line; experiment: Cell-based assays of c-Kit mutant kinase activity (cell growth, ATPlite); settings: at least one of the c-kit cell assays of Example 26
Method in brief: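 IC50 derived from ATP-content luminescence (ATPlite) after three-day compound exposure at 37° C., 5% CO2. Cells: BaF3 rendered growth-dependent on full-length human KIT D816V or V560G/D816V, 1×10^4 per well, RPMI plus 10% FBS; 8 points, 1:3 steps, maximum 10 μM final, 0.2% DMSO.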

Sequence of c-kit mutant D816V (P10721 other isoform, or with tags, fused parts or gaps D816V/del 694-753): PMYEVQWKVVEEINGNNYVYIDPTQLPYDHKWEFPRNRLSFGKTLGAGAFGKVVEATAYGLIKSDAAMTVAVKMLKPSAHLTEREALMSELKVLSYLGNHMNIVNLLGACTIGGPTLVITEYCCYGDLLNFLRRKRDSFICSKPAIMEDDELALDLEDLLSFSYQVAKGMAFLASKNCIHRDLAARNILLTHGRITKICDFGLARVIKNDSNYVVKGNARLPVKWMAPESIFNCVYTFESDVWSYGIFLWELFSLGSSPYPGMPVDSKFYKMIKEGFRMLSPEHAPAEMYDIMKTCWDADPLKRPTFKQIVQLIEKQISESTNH

SMILES	IC50 [1]	IC50 [2]
CCNS(=O)(=O)c1cccc(Nc2ncc(NC(=O)c3[nH]nc(C)c3C)cn2)c1 [P-2050, N-[2-[3-(ethylsulfamoyl)anilino]pyrimidin-5-yl]-3,4-dimethyl-1H-pyrazole-5-carboxamide]	1 to 10 µM	< 10000 nM
Cc1cncc(-c2cc3cc(NC(=O)c4[nH]nc(C)c4C)cnc3[nH]2)c1 [P-2184, 3,4-dimethyl-N-[2-(5-methyl-3-pyridyl)-1H-pyrrolo[2,3-b]pyridin-5-yl]-1H-pyrazole-5-carboxamide]	0.0001 to 1 µM	< 10000 nM
CCc1cc(-c2cc3cc(NC(=O)c4[nH]nc(C)c4C)cnc3[nH]2)ccn1 [P-2177, N-[2-(2-ethyl-4-pyridyl)-1H-pyrrolo[2,3-b]pyridin-5-yl]-3,4-dimethyl-1H-pyrazole-5-carboxamide]	0.0001 to 1 µM	< 10000 nM
Cc1n[nH]c(C(=O)Nc2cnc3[nH]c(-c4ccc(C(=O)O)c(F)c4)cc3c2)c1C [P-2292, 4-[5-[(3,4-dimethyl-1H-pyrazole-5-carbonyl)amino]-1H-pyrrolo[2,3-b]pyridin-2-yl]-2-fluoro-benzoic acid]	0.0001 to 1 µM	< 10000 nM
CCCS(=O)(=O)Nc1cccc(Nc2ncc(NC(=O)c3[nH]nc(C)c3C)cn2)c1 [P-2052, 3,4-dimethyl-N-[2-[3-(propylsulfonylamino)anilino]pyrimidin-5-yl]-1H-pyrazole-5-carboxamide]	0.0001 to 1 µM	< 10000 nM
Cc1n[nH]c(C(=O)Nc2cnc(Nc3ccccc3)nc2)c1C [P-2044, N-(2-anilinopyrimidin-5-yl)-3,4-dimethyl-1H-pyrazole-5-carboxamide]	0.0001 to 1 µM	< 10000 nM
Cc1n[nH]c(C(=O)Nc2cnc3[nH]c(-c4ccc(F)cc4)cc3c2)c1Cl [P-2023, 4-chloro-N-[2-(4-fluorophenyl)-1H-pyrrolo[2,3-b]pyridin-5-yl]-3-methyl-1H-pyrazole-5-carboxamide]	0.0001 to 1 µM	< 10000 nM
Cc1ccc(-c2cc3cc(NC(=O)c4[nH]nc(C)c4C)cnc3[nH]2)c(C)c1 [P-2181, N-[2-(2,4-dimethylphenyl)-1H-pyrrolo[2,3-b]pyridin-5-yl]-3,4-dimethyl-1H-pyrazole-5-carboxamide]	0.0001 to 1 µM	< 10000 nM
Cc1n[nH]c(C(=O)Nc2cnc3[nH]c(-c4cccc(N5CCNCC5)c4)cc3c2)c1C [P-2274, 3,4-dimethyl-N-[2-(3-piperazin-1-ylphenyl)-1H-pyrrolo[2,3-b]pyridin-5-yl]-1H-pyrazole-5-carboxamide]	0.0001 to 1 µM	< 10000 nM
Cc1n[nH]c(C(=O)Nc2cnc3[nH]c(-c4ccnc(N5CCN(S(C)(=O)=O)CC5)c4)cc3c2)c1C [P-2186, 3,4-dimethyl-N-[2-[2-(4-methylsulfonylpiperazin-1-yl)-4-pyridyl]-1H-pyrrolo[2,3-b]pyridin-5-yl]-1H-pyrazole-5-carboxamide]	0.0001 to 1 µM	< 10000 nM
CCOC(=O)Nc1cccc(Nc2ncc(NC(=O)c3[nH]nc(C)c3C)cn2)c1 [P-2055, ethyl N-[3-[[5-[(3,4-dimethyl-1H-pyrazole-5-carbonyl)amino]pyrimidin-2-yl]amino]phenyl]carbamate]	0.0001 to 1 µM	< 10000 nM
Cc1n[nH]c(C(=O)Nc2cnc(Nc3cccc(N4CCOCC4)c3)nc2)c1C [P-2051, 3,4-dimethyl-N-[2-(3-morpholinoanilino)pyrimidin-5-yl]-1H-pyrazole-5-carboxamide]	0.0001 to 1 µM	< 10000 nM
Cc1n[nH]c(C(=O)Nc2cnc3[nH]c(-c4cccc5c4OCC5)cc3c2)c1C [P-2273, N-[2-(2,3-dihydrobenzofuran-7-yl)-1H-pyrrolo[2,3-b]pyridin-5-yl]-3,4-dimethyl-H-pyrazole-5-carboxamide]	0.0001 to 1 µM	< 10000 nM
Cc1n[nH]c(C(=O)Nc2cnc3[nH]c(-c4cncc(C#N)c4)cc3c2)c1C [P-2270, N-[2-(5-cyano-3-pyridyl)-1H-pyrrolo[2,3-b]pyridin-5-yl]-3,4-dimethyl-1H-pyrazole-5-carboxamide]	0.0001 to 1 µM	< 10000 nM
CCn1nccc1S(=O)(=O)Nc1cnc2[nH]c(-c3ccc(F)cc3)cc2c1 [P-2030, 2-ethyl-N-[2-(4-fluorophenyl)-1H-pyrrolo[2,3-b]pyridin-5-yl]pyrazole-3-sulfonamide]	10 to 200 µM	< 10000 nM
COc1ccc(-c2cc3cc(NC(=O)c4[nH]nc(C)c4C)cnc3[nH]2)c(C)c1C [P-2284, N-[2-(4-methoxy-2,3-dimethyl-phenyl)-1H-pyrrolo[2,3-b]pyridin-5-yl]-3,4-dimethyl-1H-pyrazole-5-carboxamide]	0.0001 to 1 µM	< 10000 nM
Cc1n[nH]c(C(=O)Nc2ccc(Nc3ccccc3)nc2)c1C [P-2045, N-(6-anilino-3-pyridyl)-3,4-dimethyl-1H-pyrazole-5-carboxamide]	0.0001 to 1 µM	< 10000 nM

SMILES	IC50 [1]	IC50 [2]
Cc1n[nH]c(C(=O)Nc2cnc3[nH]c(-c4cnc(N5CCN(C)CC5)nc4)cc3c2)c1C [P-2160, 3,4-dimethyl-N-[2-[2-(4-methylpiperazin-1-yl)pyrimidin-5-yl]-1H-pyrrolo[2,3-b]pyridin-5-yl]-1H-pyrazole-5-carboxamide]	0.0001 to 1 µM	< 10000 nM
Cc1n[nH]c(C(=O)Nc2cnc3[nH]c(-c4cccc5c4OC(F)(F)O5)cc3c2)c1C [P-2281, N-[2-(2,2-difluoro-1,3-benzodioxol-4-yl)-1H-pyrrolo[2,3-b]pyridin-5-yl]-3,4-dimethyl-1H-pyrazole-5-carboxamide]	0.0001 to 1 µM	< 10000 nM
Cc1n[nH]c(C(=O)Nc2cnc3[nH]c(-c4ccnc(N5CCN(C(=O)CC#N)CC5)c4)cc3c2)c1C [P-2189, N-[2-[2-[4-(2-cyanoacetyl)piperazin-1-yl]-4-pyridyl]-1H-pyrrolo[2,3-b]pyridin-5-yl]-3,4-dimethyl-1H-pyrazole-5-carboxamide]	0.0001 to 1 µM	< 10000 nM
Cc1n[nH]c(C(=O)Nc2cnc3[nH]c(-c4ccc(C5(C(=O)O)CC5)cc4)cc3c2)c1C [P-2294, 1-[4-[5-[(3,4-dimethyl-1H-pyrazole-5-carbonyl)amino]-1H-pyrrolo[2,3-b]pyridin-2-yl]phenyl]cyclopropanecarboxylic acid]	0.0001 to 1 µM	< 10000 nM
O=C(Nc1cnc2[nH]c(-c3ccccc3)cc2c1)c1cn[nH]n1 [P-2015, N-(2-phenyl-1H-pyrrolo[2,3-b]pyridin-5-yl)-2H-triazole-4-carboxamide]	1 to 10 µM	< 10000 nM
O=C(Nc1cnc2[nH]c(-c3ccc(F)cc3)cc2c1)c1cccc2n[nH]cc12 [P-2027, N-[2-(4-fluorophenyl)-1H-pyrrolo[2,3-b]pyridin-5-yl]-2H-indazole-4-carboxamide]	1 to 10 µM	< 10000 nM
Cc1n[nH]c(C(=O)Nc2cnc3[nH]c(-c4ccccc4C(F)(F)F)cc3c2)c1C [P-2180, 3,4-dimethyl-N-[2-[2-(trifluoromethyl)phenyl]-1H-pyrrolo[2,3-b]pyridin-5-yl]-1H-pyrazole-5-carboxamide]	0.0001 to 1 µM	< 10000 nM
COC(=O)c1cccc(C(=O)Nc2cnc3[nH]c(-c4ccccc4)cc3c2)c1 [P-2290, methyl 3-[(2-phenyl-1H-pyrrolo[2,3-b]pyridin-5-yl)carbamoyl]benzoate]	10 to 200 µM	< 10000 nM
Cc1nn(C2COC2)cc1-c1cc2cc(NC(=O)c3[nH]nc(C)c3C)cnc2[nH]1 [P-2168, 3,4-dimethyl-N-[2-[3-methyl-1-(oxetan-3-yl)pyrazol-4-yl]-1H-pyrrolo[2,3-b]pyridin-5-yl]-1H-pyrazole-5-carboxamide]	0.0001 to 1 µM	< 10000 nM
Cc1n[nH]c(C(=O)Nc2cnc3[nH]c(-c4c(C)n[nH]c4C)cc3c2)c1C [P-2167, N-[2-(3,5-dimethyl-1H-pyrazol-4-yl)-1H-pyrrolo[2,3-b]pyridin-5-yl]-3,4-dimethyl-1H-pyrazole-5-carboxamide]	0.0001 to 1 µM	< 10000 nM
Cc1n[nH]c(C(=O)Nc2cnc3[nH]c(-c4c(C)nn(C)c4C)cc3c2)c1C [P-2165, 3,4-dimethyl-N-[2-(1,3,5-trimethylpyrazol-4-yl)-1H-pyrrolo[2,3-b]pyridin-5-yl]-1H-pyrazole-5-carboxamide]	1 to 10 µM	< 10000 nM
Cc1c[nH]nc1C(=O)Nc1cnc2[nH]c(-c3ccc(F)cc3)cc2c1 [P-2029, N-[2-(4-fluorophenyl)-1H-pyrrolo[2,3-b]pyridin-5-yl]-4-methyl-1H-pyrazole-3-carboxamide]	0.0001 to 1 µM	< 10000 nM
Cc1n[nH]c(C(=O)Nc2cnc3[nH]c(-c4ccc(F)cc4OC(F)F)cc3c2)c1C [P-2268, N-[2-[2-(difluoromethoxy)-4-fluoro-phenyl]-1H-pyrrolo[2,3-b]pyridin-5-yl]-3,4-dimethyl-1H-pyrazole-5-carboxamide]	0.0001 to 1 µM	< 10000 nM
COc1cncc(-c2cc3cc(NC(=O)c4[nH]nc(C)c4C)cnc3[nH]2)c1 [P-2183, N-[2-(5-methoxy-3-pyridyl)-1H-pyrrolo[2,3-b]pyridin-5-yl]-3,4-dimethyl-1H-pyrazole-5-carboxamide]	0.0001 to 1 µM	< 10000 nM
Cc1n[nH]c(C(=O)Nc2cnc3[nH]c(-c4cnn(C5CCNCC5)c4)cc3c2)c1C [P-2048, 3,4-dimethyl-N-[2-[1-(4-piperidyl)pyrazol-4-yl]-1H-pyrrolo[2,3-b]pyridin-5-yl]-1H-pyrazole-5-carboxamide]	0.0001 to 1 µM	< 10000 nM
CNC(=O)c1cccc(Nc2ncc(NC(=O)c3[nH]nc(C)c3C)cn2)c1 [P-2054, 3,4-dimethyl-N-[2-[3-(methylcarbamoyl)anilino]pyrimidin-5-yl]-1H-pyrazole-5-carboxamide]	0.0001 to 1 µM	< 10000 nM
